Structures can show the parent of a compound that is named as a salt.
The compounds below were run against T1, human V1a receptor (Homo sapiens, UniProt P37288) (assay: human V1a receptor binding studies (SPA, 3H-Vasopressin, membranes of transfected HEK293 cells)). Details: displacement of 3H-Vasopressin, HEK293 cell membranes, 1 h at room temperature; Ki by Cheng-Prussoff equation; read-out: pKi (hV1a) (converted).
T1 construct: expressed in transfected cells; host or cells: HEK293 cells, transiently transfected; membrane preparation
T1 sequence (P37288 whole entry): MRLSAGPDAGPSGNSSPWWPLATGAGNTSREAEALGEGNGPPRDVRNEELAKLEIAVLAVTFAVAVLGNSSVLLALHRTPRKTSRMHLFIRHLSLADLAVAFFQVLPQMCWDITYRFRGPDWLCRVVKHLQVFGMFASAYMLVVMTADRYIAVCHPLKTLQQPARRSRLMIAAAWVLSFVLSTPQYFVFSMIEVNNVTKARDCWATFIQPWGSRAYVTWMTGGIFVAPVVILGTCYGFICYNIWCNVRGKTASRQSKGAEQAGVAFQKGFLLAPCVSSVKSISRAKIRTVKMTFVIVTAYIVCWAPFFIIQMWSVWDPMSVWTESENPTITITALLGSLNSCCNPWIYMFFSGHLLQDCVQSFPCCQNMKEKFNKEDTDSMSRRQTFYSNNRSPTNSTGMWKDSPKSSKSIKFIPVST
Procedure: The human V1a receptor was cloned by RT-PCR from total human liver RNA. The coding sequence was subcloned in an expression vector after sequencing to confirm the identity of the amplified sequence. […] Cell membranes were prepared from HEK293 cells transiently transfected with the expression vector and grown in 20 liter fermenters with the following protocol.
50 g of cells are resuspended in 30 ml freshly prepared ice cold Lysis buffer (50 mM HEPES, 1 mM EDTA, 10 mM magnesium dichloride adjusted to pH=7.4+complete cocktail of protease inhibitor (Roche Diagnostics)). Homogenized with Polytron for 1 min and sonicated on ice for 2×2 minutes at 80% intensity (Vibracell sonicator). The preparation is centrifuged 20 min at 500 g at 4° C., the pellet is discarded and the supernatant centrifuged 1 hour at 43'000 g at 4° C. (19'000 rpm). The pellet is resuspended in 12.5 ml Lysis buffer+12.5 ml Sucrose 20% and homogenized using a Polytron for 1-2 min. The protein concentration is determined by the Bradford method and aliquots are stored at −80° C. until use. For binding studies 60 mg Yttrium silicate SPA beads (Amersham) are mixed with an aliquot of membrane in binding buffer (50 mM Tris, 120 mM sodium chloride, 5 mM potassium chloride, 2 mM Calcium dichloride, 10 mM magnesium dichloride) for 15 minutes with mixing. 50 μl of bead/membrane mixture is then added to each well of a 96 well plate, followed by 50 μl of 4 nM 3H-Vasopressin (American Radiolabeled Chemicals). For total binding measurement 100 μl of binding buffer are added to the respective wells, for non-specific binding 100 μl of 8.4 mM cold vasopressin and for compound testing 100 μl of a serial dilution of each compound in 2% dimethyl sulfoxide. The plate is incubated 1 h at room temperature, centrifuged […] at 1000 g and counted on a Packard Top-Count. Non-specific binding counts are subtracted from each well and data is normalized to the maximum specific binding set at 100%. To calculate an IC 50 the curve is fitted using a non-linear regression model (XLfit) and the Ki is calculated using the Cheng-Prussoff equation.
CC(C)(C)OC(=O)N1Cc2cc(Cl)ccc2-n2c(nnc2[C@H]2CC[C@H](Oc3ccc(C(F)(F)F)cc3)CC2)C1 [Example 23, trans-8-Chloro-1-[4-(4-trifluoromethyl-phenoxy)-cyclohexyl]-4H,6H-2,3,5,10b-tetraaza-benzo[e]azulene-5-carboxylic acid tert-butyl ester] was tested, and the Ki was 9.12 nM.
In the case of CN1Cc2cc(Cl)ccc2-n2c(nnc2[C@H]2CC[C@H](Oc3ccc4ccccc4c3)CC2)C1 [Example 57, trans-8-Chloro-5-methyl-1-[4-(naphthalen-2-yloxy)-cyclohexyl]-5,6-dihydro-4H-2,3,5,10b-tetraaza-benzoazulene], the Ki is reported as 5.75 nM.
With Fc1ccccc1O[C@H]1CC[C@H](c2nnc3n2-c2ccc(Cl)cc2CNC3)CC1 [Example 44, trans-8-Chloro-1-[4-(2-fluoro-phenoxy)-cyclohexyl]-5,6-dihydro-4H-2,3,5,10b-tetraaza-benzo[e]azulene hydrochloride] the Ki was 3.39 nM.
Compound COc1cccc(O[C@H]2CC[C@H](c3nnc4n3-c3ccc(Cl)cc3CNC4)CC2)c1 [Example 30, trans-8-Chloro-1-[4-(3-methoxy-phenoxy)-cyclohexyl]-5,6-dihydro-4H-2,3,5,10b-tetraaza-benzo[e]azulene hydrochloride] has a Ki of 3.31 nM.
In the case of CC(C)(C)OC(=O)N1Cc2cc(F)ccc2-n2c(nnc2[C@H]2CC[C@H](Oc3ccccc3)CC2)C1 [Example 11, trans-8-Fluoro-1-(4-phenoxy-cyclohexyl)-4H,6H-2,3,5,10b-tetraaza-benzo[e]azulene-5-carboxylic acid tert-butyl ester], the Ki is reported as 5.5 nM.
Cc1cccc(O[C@H]2CC[C@H](c3nnc4n3-c3ccc(Cl)cc3CNC4)CC2)n1 [Example 105, trans-8-Chloro-1-[4-(6-methyl-pyridin-2-yloxy)-cyclohexyl]-5,6-dihydro-4H-2,3,5,10b-tetraaza-benzo[e]azulene] was tested, and the Ki was 5.75 nM.
Cc1cccc(O[C@H]2CC[C@H](c3nnc4n3-c3ccc(Cl)cc3CNC4)CC2)c1 [Example 36, trans-8-Chloro-1-(4-m-tolyloxy-cyclohexyl)-5,6-dihydro-4H-2,3,5,10b-tetraaza-benzo[e]azulene hydrochloride] gave a Ki of 7.59 nM.
CN1Cc2cc(Cl)ccc2-n2c(nnc2[C@H]2CC[C@H](Oc3cccc(Cl)n3)CC2)C1 [Example 72, trans-8-Chloro-1-[4-(6-chloro-pyridin-2-yloxy)-cyclohexyl]-5-methyl-5,6-dihydro-4H-2,3,5,10b-tetraaza-benzo[e]azulene] gave a Ki of 2.4 nM.
For CS(=O)(=O)N1Cc2cc(Cl)ccc2-n2c(nnc2[C@H]2CC[C@H](Oc3ccccc3)CC2)C1 [Example 5, trans-8-Chloro-5-methanesulfonyl-1-(4-phenoxy-cyclohexyl)-5,6-dihydro-4H-2,3,5,10b-tetraaza-benzoazulene], the Ki was 1.7 nM.
Work on CN1Cc2cc(Cl)ccc2-n2c(nnc2[C@H]2CC[C@H](Oc3ccncn3)CC2)C1 [Example 89, trans-8-Chloro-5-methyl-1-[4-(pyrimidin-4-yloxy)-cyclohexyl]-5,6-dihydro-4H-2,3,5,10b-tetraaza-benzo[e]azulene] yielded a Ki of 12.3 nM.
Work on CN1Cc2cc(Cl)ccc2-n2c(nnc2[C@H]2CC[C@H](Oc3cnccn3)CC2)C1 [Example 85, trans-8-Chloro-5-methyl-1-[4-(pyrazin-2-yloxy)-cyclohexyl]-5,6-dihydro-4H-2,3,5,10b-tetraaza-benzo[e]azulene] yielded a Ki of 7.59 nM.
For Cc1cccc(O[C@H]2CC[C@H](c3nnc4n3-c3ccc(Cl)cc3CN(C)C4)CC2)c1 [Example 37, trans-8-Chloro-5-methyl-1-(4-m-tolyloxy-cyclohexyl)-5,6-dihydro-4H-2,3,5,10b-tetraaza-benzo[e]azulene], the Ki was 1.7 nM.
Compound Fc1ccc(O[C@H]2CC[C@H](c3nnc4n3-c3ccc(Cl)cc3CNC4)CC2)nc1 [Example 101, trans-8-Chloro-1-[4-(5-fluoro-pyridin-2-yloxy)-cyclohexyl]-5,6-dihydro-4H-2,3,5,10b-tetraaza-benzo[e]azulene] has a Ki of 9.12 nM.
CC(C)(C)OC(=O)N1Cc2cc(Cl)ccc2-n2c(nnc2[C@H]2CC[C@H](Oc3cc(F)cc(F)c3)CC2)C1 [Example 52, trans-8-Chloro-1-[4-(3,5-difluoro-phenoxy)-cyclohexyl]-4H,6H-2,3,5,10b-tetraaza-benzoazulene-5-carboxylic acid tert-butyl ester] gave a Ki of 3.47 nM.
For Clc1ccc2c(c1)CNCc1nnc([C@H]3CC[C@H](Oc4ccccn4)CC3)n1-2 [Example 68, trans-8-Chloro-1-[4-(pyridin-2-yloxy)-cyclohexyl]-5,6-dihydro-4H-2,3,5,10b-tetraaza-benzoazulene hydrochloride], the Ki was 6.17 nM.
With CC(C)(C)OC(=O)N1Cc2cc(Cl)ccc2-n2c(nnc2[C@H]2CC[C@H](Oc3cncc(Cl)c3)CC2)C1 [Example 64, trans-8-Chloro-1-[4-(5-chloro-pyridin-3-yloxy)-cyclohexyl]-4H,6H-2,3,5,10b-tetraaza-benzoazulene-5-carboxylic acid tert-butyl ester] the Ki was 9.55 nM.
For CC(C)(C)OC(=O)N1Cc2cc(Cl)ccc2-n2c(nnc2[C@H]2CC[C@H](Oc3cnccn3)CC2)C1 [Example 83, trans-8-Chloro-1-[4-(pyrazin-2-yloxy)-cyclohexyl]-4H,6H-2,3,5,10b-tetraaza-benzo[e]azulene-5-carboxylic acid tert-butyl ester], the Ki was 4.07 nM.
For CN1Cc2cc(Cl)ccc2-n2c(nnc2[C@H]2CC[C@H](Oc3ccc(C#N)cc3)CC2)C1 [Example 22, trans-4-[4-(8-Chloro-5-methyl-5,6-dihydro-4H-2,3,5,10b-tetraaza-benzo[e]azulen-1-yl)-cyclohexyloxy]-benzonitrile], the Ki was 8.91 nM.
CC(C)(C)OC(=O)N1Cc2cc(Cl)ccc2-n2c(nnc2[C@H]2CC[C@H](Oc3ccncn3)CC2)C1 [Example 86, trans-8-Chloro-1-[4-(pyrimidin-4-yloxy)-cyclohexyl]-4H,6H-2,3,5,10b-tetraaza-benzo[e]azulene-5-carboxylic acid tert-butyl ester] gave a Ki of 3.47 nM.
Clc1ccc2c(c1)CNCc1nnc([C@H]3CC[C@@H](Oc4ccccn4)CC3)n1-2 [Example 110, cis-8-Chloro-1-[4-(pyridin-2-yloxy)-cyclohexyl]-5,6-dihydro-4H-2,3,5,10b-tetraaza-benzo[e]azulene] gave a Ki of 51.3 nM.
In the case of CC(C)(C)OC(=O)N1Cc2cc(Cl)ccc2-n2c(nnc2[C@H]2CC[C@H](Oc3ncccn3)CC2)C1 [Example 79, trans-8-Chloro-1-[4-(pyrimidin-2-yloxy)-cyclohexyl]-4H,6H-2,3,5,10b-tetraaza-benzo[e]azulene-5-carboxylic acid tert-butyl ester], the Ki is reported as 2.57 nM.
Work on CN1Cc2cc(Cl)ccc2-n2c(nnc2[C@H]2CC[C@H](Oc3ccccc3F)CC2)C1 [Example 45, trans-8-Chloro-1-[4-(2-fluoro-phenoxy)-cyclohexyl]-5-methyl-5,6-dihydro-4H-2,3,5,10b-tetraaza-benzo[e]azulene] yielded a Ki of 3.63 nM.
Work on CC(C)(C)OC(=O)N1Cc2cc(Cl)ccc2-n2c(nnc2[C@H]2CC[C@@H](Oc3ncccn3)CC2)C1 [Example 80, cis-8-Chloro-1-[4-(pyrimidin-2-yloxy)-cyclohexyl]-4H,6H-2,3,5,10b-tetraaza-benzo[e]azulene-5-carboxylic acid tert-butyl ester] yielded a Ki of 12.6 nM.
With CN1Cc2cc(Cl)ccc2-n2c(nnc2[C@H]2CC[C@@H](Oc3ccccn3)CC2)C1 [Example 111, cis-8-Chloro-5-methyl-1-[4-(pyridin-2-yloxy)-cyclohexyl]-5,6-dihydro-4H-2,3,5,10b-tetraaza-benzo[e]azulene] the Ki was 3.31 nM.
CC(C)(C)OC(=O)N1Cc2cc(Cl)ccc2-n2c(nnc2[C@H]2CC[C@@H](Oc3cccnn3)CC2)C1 [Example 93, cis-8-Chloro-1-[4-(pyridazin-3-yloxy)-cyclohexyl]-4H,6H-2,3,5,10b-tetraaza-benzo[e]azulene-5-carboxylic acid tert-butyl ester] was tested, and the Ki was 7.94 nM.
Cc1ccccc1O[C@H]1CC[C@H](c2nnc3n2-c2ccc(Cl)cc2CN(C(=O)OC(C)(C)C)C3)CC1 [Example 49, trans-8-Chloro-1-(4-o-tolyloxy-cyclohexyl)-4H,6H-2,3,5,10b-tetraaza-benzoazulene-5-carboxylic acid tert-butyl ester] was tested, and the Ki was 7.08 nM.
With CN1Cc2cc(Cl)ccc2-n2c(nnc2[C@H]2CC[C@@H](Oc3ccccc3)CC2)C1 [Example 16, cis-8-Chloro-5-methyl-1-(4-phenoxy-cyclohexyl)-5,6-dihydro-4H-2,3,5,10b-tetraaza-benzoazulene] the Ki was 2.88 nM.
Compound Fc1cccnc1O[C@H]1CC[C@H](c2nnc3n2-c2ccc(Cl)cc2CNC3)CC1 [Example 98, trans-8-Chloro-1-[4-(3-fluoro-pyridin-2-yloxy)-cyclohexyl]-5,6-dihydro-4H-2,3,5,10b-tetraaza-benzo[e]azulene] has a Ki of 3.02 nM.

Reference: patent US8461152B2, “Arylcyclohexylethers of dihydrotetraazabenzoazulenes” (Hoffmann-La Roche Inc., priority 2008, dated 2013)
